Numbers after ± are expanded uncertainties.
Experiments:
[1] = Crystal; DTA
[2] = molar enthalpy of vaporization or sublimation; details: 298.15 K, vacuum sublimation/vaporization calorimetry
[3] = Molar enthalpy of transition or fusion; details: Crystal; DSC

Row | Normal melting temperature [1] [°C] | molar enthalpy ([2]; Crystal) [kcal/mol] | Molar enthalpy of transition or fusion [3] [kcal/mol] | molar enthalpy ([2]; Liquid) [kcal/mol] | Structure (SMILES)
1 | 147.01 ± 0.39 | 23.3 ± 1.03 | 6.74 ± 0.287 |  | O=[N+]([O-])c1ccc2c(c1)OCO2 [1,2-(methylenedioxy)-4-nitrobenzene]
2 | 93.11 ± 0.39 | 21.7 ± 0.43 | 4.97 ± 0.12 |  | N#Cc1ccc2c(c1)OCO2 [3,4-methylenedioxybenzonitrile]
3 |  |  |  | 13.1 ± 0.55 | Cc1ccc2c(c1)OCO2 [5-methyl-1,3-benzodioxole]

Row | Structure (SMILES) | Normal melting temperature [1] [°C] | molar enthalpy ([2]; Crystal) [kcal/mol] | Molar enthalpy of transition or fusion [3] [kcal/mol] | molar enthalpy ([2]; Liquid) [kcal/mol]
4 | CC(=O)c1ccc2c(c1)OCO2 [5-oxoethyl-1,3-benzodioxole] | 85.72 ± 0.39 | 25 ± 1.03 | 6.27 ± 0.141 | 
